This is an account of results in paper PMC10207366, “Screening and Biological Evaluation of Soluble Epoxide Hydrolase Inhibitors: Assessing the Role of Hydrophobicity in the Pharmacophore-Guided Search of Novel Hits” (Journal of Chemical Information and Modeling, 2023).

Like-named read-outs stand apart in the source and are kept apart here. A value given as a limit tells only on which side of the number the result lay.

One experiment addresses T1, mouse sEH (msEH) (Mus musculus, UniProt P34914).
T1 sequence (P34914 1-554): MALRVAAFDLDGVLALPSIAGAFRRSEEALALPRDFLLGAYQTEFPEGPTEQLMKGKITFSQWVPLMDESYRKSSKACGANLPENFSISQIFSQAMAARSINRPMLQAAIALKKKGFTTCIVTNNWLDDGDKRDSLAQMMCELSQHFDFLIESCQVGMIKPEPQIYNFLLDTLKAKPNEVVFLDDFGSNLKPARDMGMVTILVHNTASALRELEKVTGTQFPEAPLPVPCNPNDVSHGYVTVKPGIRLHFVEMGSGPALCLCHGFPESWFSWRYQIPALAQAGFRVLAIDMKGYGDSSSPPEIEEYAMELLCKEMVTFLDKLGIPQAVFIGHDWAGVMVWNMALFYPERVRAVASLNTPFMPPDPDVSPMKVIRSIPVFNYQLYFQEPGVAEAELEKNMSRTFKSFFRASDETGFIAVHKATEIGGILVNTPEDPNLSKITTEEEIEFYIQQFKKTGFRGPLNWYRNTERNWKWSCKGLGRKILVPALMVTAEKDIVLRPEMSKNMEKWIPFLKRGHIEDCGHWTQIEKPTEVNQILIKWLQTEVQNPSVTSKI
Briefly: fluorescence-based sEH IC50 assay (CMNPC substrate). The format is biochemical. To be noted: experimental. Here is the method: (§1) The IC50 values of the 18 compounds selected from the log P + HB and QE + R3 pharmacophore ranking were determined using a fluorescence-based assay[68] with either purified recombinant hsEH, mouse sEH (msEH), or rat sEH (rsEH). The enzyme was incubated at 30 °C with the inhibitors ([I]final = 0.4–50,000 nM) for 5 min in 100 mM sodium phosphate buffer (200 μL, pH 7.4) containing 0.1 mg/mL of […] (BSA) and 1% dimethyl sulfoxide (DMSO). The substrate (cyano(6-methoxynaphthalen-2-yl)methyl((3-phenyloxiran-2-yl)methyl)carbonate; CMNPC) was then added ([S]final = 5 μM). The activity was assessed by measuring the appearance of the fluorescent 6-methoxynaphthaldehyde product (λex = 330 nm, λem = 465 nm) every 30 s for 10 min at 30 °C on a SpectraMax M2 (Molecular Devices, CA). The results were obtained by regression analysis from a linear region of the curve.

For experiment [1], the target named is T2, purified recombinant hsEH (Homo sapiens, UniProt P34913).
T2 sequence (P34913 1-555): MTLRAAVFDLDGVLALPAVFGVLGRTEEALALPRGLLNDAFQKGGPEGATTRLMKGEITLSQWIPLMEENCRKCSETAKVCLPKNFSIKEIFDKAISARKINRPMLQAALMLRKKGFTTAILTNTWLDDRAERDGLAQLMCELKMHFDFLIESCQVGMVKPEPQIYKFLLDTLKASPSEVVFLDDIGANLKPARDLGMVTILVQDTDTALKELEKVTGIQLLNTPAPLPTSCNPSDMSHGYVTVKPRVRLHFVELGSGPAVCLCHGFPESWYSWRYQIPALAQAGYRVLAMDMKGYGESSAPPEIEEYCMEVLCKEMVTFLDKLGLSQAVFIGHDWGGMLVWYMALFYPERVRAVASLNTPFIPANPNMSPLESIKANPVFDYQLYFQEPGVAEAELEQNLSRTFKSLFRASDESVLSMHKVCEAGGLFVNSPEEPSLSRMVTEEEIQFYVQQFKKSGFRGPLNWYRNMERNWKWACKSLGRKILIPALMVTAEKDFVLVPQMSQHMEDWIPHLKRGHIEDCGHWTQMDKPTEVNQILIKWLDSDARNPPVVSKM
The description is as above. The format is biochemical. The method, then:
as §1

For the next experiment, the target named is T3, rat sEH (rsEH) (Rattus norvegicus, UniProt P80299).
T3 sequence (P80299 1-554): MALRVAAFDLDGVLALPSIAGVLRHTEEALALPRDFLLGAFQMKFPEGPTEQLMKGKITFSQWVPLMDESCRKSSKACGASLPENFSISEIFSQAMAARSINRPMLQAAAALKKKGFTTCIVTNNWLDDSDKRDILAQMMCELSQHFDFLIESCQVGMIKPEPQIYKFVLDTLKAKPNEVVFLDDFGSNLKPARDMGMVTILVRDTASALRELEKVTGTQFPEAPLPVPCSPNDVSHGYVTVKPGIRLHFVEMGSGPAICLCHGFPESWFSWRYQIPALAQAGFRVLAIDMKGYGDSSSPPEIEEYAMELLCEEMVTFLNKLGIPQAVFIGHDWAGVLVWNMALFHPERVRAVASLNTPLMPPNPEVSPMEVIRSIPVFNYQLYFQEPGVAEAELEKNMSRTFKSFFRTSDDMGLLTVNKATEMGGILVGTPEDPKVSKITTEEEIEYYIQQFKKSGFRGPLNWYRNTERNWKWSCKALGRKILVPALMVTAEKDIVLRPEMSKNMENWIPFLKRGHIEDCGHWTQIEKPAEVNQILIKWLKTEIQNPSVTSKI
Described as above. The format is biochemical. The conditions noted are these: experimental. The method, then:
as §1

A further experiment has as its system hsEH. The conditions noted are these: training set, Table S1; ref reference publication (DOI) of Table S1; cited from earlier work.
Setting [2] is: experimental, human sEH, read-out: pIC50 hsEH (converted).

Turning to `Cc1ccc(C(C)C)c(OCc2ccc(C(=O)NNC(=O)NC34CC5CC(CC(C5)C3)C4)o2)c1` [AK-968/15603026, Cc1ccc(C(C)C)c(OCc2ccc(C(=O)NNC(=O)NC34CC5CC(CC(C5)C3)C4)o2)c1], the IC50 against mouse sEH (msEH) is 316 nM; in experiment [1] (setting [2]), 126 nM; against rat sEH (rsEH), 39.8 nM.
`O=C(N/N=C/c1c2ccccc2cc2ccccc12)NC12CC3CC(CC(C3)C1)C2` [AK-968/40204236, O=C(N/N=C/c1c2ccccc2cc2ccccc12)NC12CC3CC(CC(C3)C1)C2]: the “pIC50 msEH” value on mouse sEH (msEH) is recorded as 5.8. For the same compound, the “pIC50 rsEH” value against rat sEH (rsEH) was 6.5.
In the case of `O=C(NCCC(c1ccccc1)c1ccccc1)NC1CCCCC1` [AK-968/41927527, O=C(NCCC(c1ccccc1)c1ccccc1)NC1CCCCC1], the IC50 against mouse sEH (msEH) was 1.26 nM; in experiment [1] (setting [2]) it was 0.398 nM; against rat sEH (rsEH), 0.398 nM. Besides, the “IC50 hsEH” value in experiment [1] (human enzyme) is on record as “subnanomolar”.
On to `O=C(CSc1nc(-c2ccccc2)cn1-c1ccccc1)NC(=O)Nc1ccccc1` [AO-476/43362680, O=C(CSc1nc(-c2ccccc2)cn1-c1ccccc1)NC(=O)Nc1ccccc1], for which the values for the IC50 (at mouse sEH (msEH); in experiment [1] (setting [2]); against rat sEH (rsEH)) were 25100 nM, 3980 nM and 25100 nM, respectively.
With `O=C(NC1CCC(Oc2ccc(C(=O)O)cc2)CC1)NC12CC3CC(CC(C3)C1)C2` (stereo not drawn) [TR_mol5, 4-[(trans-4-{[(3s,5s,7s)-tricyclo[3.3.1.1∼3,7∼]dec-1-ylcarbamoyl]amino}cyclohexyl)oxy]benzoic acid], in the experiment with hsEH, the pIC50 is 8.9.
On to `O=C(Nc1ccc2c(c1)-c1ccccc1S2(=O)=O)N1CCC(F)(F)CC1` [TR_mol15, N-(5,5-dioxodibenzothiophen-2-yl)-4,4-difluoro-piperidine-1-carboxamide], for which the pIC50 in the experiment on hsEH is recorded as 7.8.
For the compound `O=C(NC[C@H]1COc2ccccc2O1)c1ccc2c(c1)N(Cc1cccc(Cl)c1)C(=O)CS2` [TR_mol17, 4-[(3-chlorophenyl)methyl]-N-[[(3S)-2,3-dihydro-1,4-benzodioxin-3-yl]methyl]-3-oxidanylidene-1,4-benzothiazine-6-carboxamide], in the experiment on hsEH, the pIC50 was 7.5.
As to `O=C(O)CCCNC(=O)NC1CCCCC1` [TR_mol23], in the experiment on hsEH, the negative-log IC50 (pIC50) is on record as 3.3.
For `O=C(O)CCCCCNC(=O)NC1CCCCC1` [TR_mol33], the pIC50 in the experiment with hsEH is recorded as 3.6.
Consider `O=C(COC(=O)c1ccc(N2CCCC2=O)cc1)NC(=O)NC12CC3CC(CC(C3)C1)C2` [Z23294293, O=C(COC(=O)c1ccc(N2CCCC2=O)cc1)NC(=O)NC12CC3CC(CC(C3)C1)C2], for which the IC50 against mouse sEH (msEH) is 631 nM; in experiment [1] (setting [2]), 100 nM; at rat sEH (rsEH) it was 39.8 nM.
Regarding `O=C(NCCC(=O)N1CCN(S(=O)(=O)c2ccccc2F)CC1)NC12CC3CC(CC(C3)C1)C2` [Z29532165, O=C(NCCC(=O)N1CCN(S(=O)(=O)c2ccccc2F)CC1)NC12CC3CC(CC(C3)C1)C2], the IC50 was 398 nM on mouse sEH (msEH), 501 nM in experiment [1] (setting [2]) and 39.8 nM on rat sEH (rsEH).
On to `O=C(NNC(=O)c1ccc(COc2ccccc2)cc1)NC12CC3CC(CC(C3)C1)C2` [Z44611499, O=C(NNC(=O)c1ccc(COc2ccccc2)cc1)NC12CC3CC(CC(C3)C1)C2], for which the IC50 against mouse sEH (msEH) was 126 nM; in experiment [1] (setting [2]), 6.31 nM; in experiment [1] (human enzyme, read-out: IC50 hsEH), less than 20 nM; at rat sEH (rsEH), 20 nM.
`CC(C(=O)NC(=O)NC12CC3CC(CC(C3)C1)C2)N1CCN(C(=O)C2COc3ccccc3O2)CC1` (stereo not shown) [Z65159029, CC(C(=O)NC(=O)NC12CC3CC(CC(C3)C1)C2)N1CCN(C(=O)C2COc3ccccc3O2)CC1]: the IC50 at mouse sEH (msEH) was 20000 nM; in experiment [1] (setting [2]), 5010 nM; against rat sEH (rsEH) it was 2000 nM.
With `O=C(NCc1ccc(N2CCCC2=O)cc1)NCc1cccc(C(F)(F)F)c1` [Z211761694, O=C(NCc1ccc(N2CCCC2=O)cc1)NCc1cccc(C(F)(F)F)c1], the IC50 against mouse sEH (msEH) was 501 nM; in experiment [1] (setting [2]) it was 200 nM; against rat sEH (rsEH) it was 200 nM.
For `CC(NC(=O)NCc1ccc(N2CCCC2=O)cc1)c1cccc(Cl)c1` (stereo not shown) [Z211852480, CC(NC(=O)NCc1ccc(N2CCCC2=O)cc1)c1cccc(Cl)c1], the IC50 is 631 nM against mouse sEH (msEH), 126 nM in experiment [1] (setting [2]) and 501 nM on rat sEH (rsEH).
Taken in the same sequence, the figures for `CC(C)N1CCC(NC(=O)NCCC(c2ccccc2)c2ccccc2)CC1` [Z339670416, CC(C)N1CCC(NC(=O)NCCC(c2ccccc2)c2ccccc2)CC1] were 1580 nM, 100 nM and 501 nM.
On the same counts, the results for `NC(=O)COc1ccc(NC(=O)NCCC(c2ccccc2)c2ccccc2)cc1` [Z339843288, NC(=O)COc1ccc(NC(=O)NCCC(c2ccccc2)c2ccccc2)cc1] are 1.26 nM, 1.26 nM and 1 nM.
Taken in the same sequence, the figures for `O=C(NCc1ccc(-c2nc3ccccc3s2)o1)NC1CCCC(C(F)(F)F)C1` (stereo not shown) [Z353003074, O=C(NCc1ccc(-c2nc3ccccc3s2)o1)NC1CCCC(C(F)(F)F)C1] were 10 nM, 6.31 nM and 5.01 nM.
With `CC1CCCCC1OCCNC(=O)Nc1cccc(OCc2ccccn2)c1` (stereo not shown) [Z416144030, CC1CCCCC1OCCNC(=O)Nc1cccc(OCc2ccccn2)c1], the IC50 at mouse sEH (msEH) is 200 nM; in experiment [1] (setting [2]), 15.8 nM; against rat sEH (rsEH), 20 nM.
In the case of `CC1CCC(NC(=O)Nc2cccc(Cn3nc4ccccn4c3=O)c2)CC1` (stereo not shown) [Z436130862, CC1CCC(NC(=O)Nc2cccc(Cn3nc4ccccn4c3=O)c2)CC1], the figures for the IC50 (at mouse sEH (msEH); in experiment [1] (setting [2]); at rat sEH (rsEH)) were 1 nM, 0.794 nM and 1 nM, respectively. In addition, in experiment [1] (human enzyme), the “IC50 hsEH” value is given as “subnanomolar”.
As for `CC(=O)CCc1ccc(OCC(=O)N2CCCC(CNC(=O)Nc3ccc(C)cc3)C2)cc1` (stereo not shown) [Z1033382608, CC(=O)CCc1ccc(OCC(=O)N2CCCC(CNC(=O)Nc3ccc(C)cc3)C2)cc1], the IC50 at mouse sEH (msEH) was 3160 nM; in experiment [1] (setting [2]), 501 nM; on rat sEH (rsEH), 398 nM.

As usually defined, the pIC50 is −log10 of the IC50, conventionally taken in molar units.
